Measured values from US8129384B2, “Imidazo[1,2-a]pyrazines as orexin receptor antagonists” (Glaxo Group Limited, priority 2008, dated 2012).
Where a name gives a salt, the structure may show the parent alone.

Assays:
[1] = target: T1, human cloned orexin-2 receptor (Homo sapiens, UniProt O43614); experiment: Antagonist affinity at human Orexin-2 receptor using FLIPR ([Ca2+]i); assay type: cell-based; conditions: CHO-hOX2 cells, EC80 hOrexinA stimulus, functional pKi from IC50 by modified Cheng-Prusoff correction; read-out: fpKi value at the human cloned orexin-2 receptor (converted)
T1 construct: expressed in transfected cells
T1 sequence (O43614 1-444): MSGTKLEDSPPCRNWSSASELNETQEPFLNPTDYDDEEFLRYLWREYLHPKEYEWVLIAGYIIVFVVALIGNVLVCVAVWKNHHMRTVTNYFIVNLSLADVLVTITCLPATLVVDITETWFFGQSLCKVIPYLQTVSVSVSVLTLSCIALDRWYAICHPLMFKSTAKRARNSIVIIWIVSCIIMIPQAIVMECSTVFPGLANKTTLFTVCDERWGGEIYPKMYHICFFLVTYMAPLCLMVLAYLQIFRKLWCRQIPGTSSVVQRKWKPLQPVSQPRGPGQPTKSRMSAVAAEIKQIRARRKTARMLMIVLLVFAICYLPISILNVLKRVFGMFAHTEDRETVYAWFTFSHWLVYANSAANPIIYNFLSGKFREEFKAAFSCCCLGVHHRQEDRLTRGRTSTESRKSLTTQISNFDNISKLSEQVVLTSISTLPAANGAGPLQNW
Method: (§1) Determination of Antagonist Affinity at Human Orexin-1 and 2 Receptors Using FLIPR
(§2) Adherent Chinese Hamster Ovary (CHO) cells, stably expressing the recombinant human Orexin-1 (hOX1) or human Orexin-2 receptors (hOX2), were maintained in culture in Alpha Minimum Essential Medium (Gibco/Invitrogen, cat. no.; 22571-020), supplemented with 10% decomplemented foetal bovine serum (Life Technologies, cat. no. 10106-078) and 400 ug/mL Geneticin G418 (Calbiochem, cat. no. 345810). Cells were grown as monolayers under 95%:5% air:CO2 at 37° C. and passaged every 3-4 days. The highest passage used was 25. […]
(§3) An agonist stimulus 384-well plate containing 50 μL/well of human orexin A (hOrexinA) was prepared just before using by diluting with buffer a stock plate: final concentration is equivalent to the calculated EC80 for hOrexinA. […]
(§4) The loaded cells were then incubated for 10 min at 37° C. with test compound. The plates were then placed into a FLIPR™ (Molecular Devices, UK) to monitor cell fluorescence (λex=488 nm, λEM=540 nm) (Sullivan E, Tucker E M, Dale I L. Measurement of [Ca^2+]i using the fluometric imaging plate reader (FLIPR). In: Lambert D G (ed.), Calcium Signaling Protocols. New Jersey: Humana Press, 1999, 125-136). A baseline fluorescence reading was taken over a 5 to 10 second period, and then 10 μL of EC80 hOrexinA solution was added. […]

[2] = target: T2, human cloned orexin-1 receptor (Homo sapiens, UniProt O43613); experiment: Antagonist affinity at human Orexin-1 receptor using FLIPR ([Ca2+]i); assay type: cell-based; conditions: CHO-hOX1 cells, EC80 hOrexinA stimulus, functional pKi from IC50 by modified Cheng-Prusoff correction; read-out: fpKi value at the human cloned orexin-1 receptor (converted)
T2 construct: expressed in transfected cells
T2 sequence (O43613 1-425): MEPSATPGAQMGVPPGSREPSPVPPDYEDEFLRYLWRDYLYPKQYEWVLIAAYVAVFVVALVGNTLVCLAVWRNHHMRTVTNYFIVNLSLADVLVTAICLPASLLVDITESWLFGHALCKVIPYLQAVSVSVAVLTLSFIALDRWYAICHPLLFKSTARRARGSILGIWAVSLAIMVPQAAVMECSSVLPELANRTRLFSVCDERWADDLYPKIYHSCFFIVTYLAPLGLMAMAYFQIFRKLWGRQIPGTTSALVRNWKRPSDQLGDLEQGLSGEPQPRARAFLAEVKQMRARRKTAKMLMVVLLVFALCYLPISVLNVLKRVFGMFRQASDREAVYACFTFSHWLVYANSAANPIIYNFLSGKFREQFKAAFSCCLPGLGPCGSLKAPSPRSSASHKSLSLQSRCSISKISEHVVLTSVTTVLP
Method: as §1, §2, §3, §4

Compound: Cc1cn2cc(C[C@@H]3CCCCN3C(=O)c3nc(C)sc3-c3ccccc3)nc2c(C)n1 [Example 1, 6,8-dimethyl-2-({(2S)-1-[(2-methyl-5-phenyl-1,3-thiazol-4-yl)carbonyl]-2-piperidinyl}methyl)imidazo[1,2-a]pyrazine (HCl salt)]
- Ki [1]: 6.31 nM
- Ki [2]: 5.01 nM
